# Reference: paper PMC10701869, “Anti-Xanthine Oxidase 5′-Hydroxyhericenes A–D from the Edible Mushroom Hericium erinaceus and Structure Revision of 3-[2,3-Dihydroxy-4-(hydroxymethyl)tetrahydrofuran-1-yl]-pyridine-4,5-diol” (ACS Omega, 2023)
# Counter-ions that a name gives are not always drawn.
# Tests used:
# [1] = tested on: T47D; experiment: cells; design: species or system MDA-MB-231, MRC-5; MTT cell viability, growth inhibition versus DMSO control, n = 4; details: Homo sapiens, 48 h
# Description: (§1) Cytotoxicity assays were evaluated against the following cell lines: T-47D ATCC, HTB-133 (hormone-dependent breast cancer), and MRC-5 ATCC, CCL171 (normal embryonic lung) from the American Type Culture Collection (ATCC, Manassas, VA) as well as MDA-MB-231 ((hormone-independent breast cancer) from M.D. Anderson Cancer Center, Houston, TX). […] The cutoff concentration is 50 μg mL^–1. Cell viability was determined using the MTT assay. […] The selectivity index between the T47D cancer cell line and the MRC-5 normal cell line is 13.5. […] In addition, this compound was previously reported to be noncytotoxic to MCF-7 cancer cell line.[36] This means that the growth inhibitory effect of hericerin depends on the types of breast cancer cell. T47D, MDA-MB-231, and MCF-7 are popular models in breast cancer studies. The T47D and MCF-7 are hormone-dependent breast cancer cells, but MDA-MB-231 is a hormone-independent breast cancer cell. […] Thus, hericerin (13) may be a good candidate to develop an anticancer agent against progesterone-sensitive breast cancer cells. Moreover, hericerin was reported to inhibit the growth of A549, SK-OV-3, SK-MEL-2, HCT-15, and HL-60 cancer cell lines.[10],[38] To determine the possible mechanism, we performed an apoptosis assay. First, T47D and MDA-MB-231 breast cancer cells were exposed to compound 13 for 48 h, and the abundance of two apoptotic markers, namely, PARP and procaspase 3, was determined by Western blot.
# [2] = in vitro; design: species or system T47D, MDA-MB-231; MTT cell viability, growth inhibition versus DMSO control, n = 4; details: human, mrc-5 cells; read-out: MRC-5 IC50
# Description: as §1, with “To determine the possible mechanism, we performed an apoptosis assay.” left out
# [3] = biological target: T1, xanthine oxidase (Bos taurus, UniProt P80457); experiment: biochemical; design: xanthine oxidase inhibition (IXO assay), dose-response, n = 3
# T1 construct: gene XDH
# Description: The assays were evaluated against DPPH (diphenyl picrylhydracyl radical), XXO (reactive oxygen species generated by xanthine oxidase), and IXO (inhibition of xanthine oxidase). DMSO was used as a solvent and a negative control. […] The cutoff concentration is 100 μg mL^–1 for DPPH and 200 μg mL^–1 for XXO and IXO.
# [4] = tested on: MDA-MB-231; experiment: cells; design: species or system T47D, MRC-5; MTT cell viability, growth inhibition versus DMSO control, n = 4; details: Homo sapiens, MDA-MB-231, 48 h
# Description: as §1, with “To determine the possible mechanism, we performed an apoptosis assay.” left out
# T1 sequence (P80457 2-1332): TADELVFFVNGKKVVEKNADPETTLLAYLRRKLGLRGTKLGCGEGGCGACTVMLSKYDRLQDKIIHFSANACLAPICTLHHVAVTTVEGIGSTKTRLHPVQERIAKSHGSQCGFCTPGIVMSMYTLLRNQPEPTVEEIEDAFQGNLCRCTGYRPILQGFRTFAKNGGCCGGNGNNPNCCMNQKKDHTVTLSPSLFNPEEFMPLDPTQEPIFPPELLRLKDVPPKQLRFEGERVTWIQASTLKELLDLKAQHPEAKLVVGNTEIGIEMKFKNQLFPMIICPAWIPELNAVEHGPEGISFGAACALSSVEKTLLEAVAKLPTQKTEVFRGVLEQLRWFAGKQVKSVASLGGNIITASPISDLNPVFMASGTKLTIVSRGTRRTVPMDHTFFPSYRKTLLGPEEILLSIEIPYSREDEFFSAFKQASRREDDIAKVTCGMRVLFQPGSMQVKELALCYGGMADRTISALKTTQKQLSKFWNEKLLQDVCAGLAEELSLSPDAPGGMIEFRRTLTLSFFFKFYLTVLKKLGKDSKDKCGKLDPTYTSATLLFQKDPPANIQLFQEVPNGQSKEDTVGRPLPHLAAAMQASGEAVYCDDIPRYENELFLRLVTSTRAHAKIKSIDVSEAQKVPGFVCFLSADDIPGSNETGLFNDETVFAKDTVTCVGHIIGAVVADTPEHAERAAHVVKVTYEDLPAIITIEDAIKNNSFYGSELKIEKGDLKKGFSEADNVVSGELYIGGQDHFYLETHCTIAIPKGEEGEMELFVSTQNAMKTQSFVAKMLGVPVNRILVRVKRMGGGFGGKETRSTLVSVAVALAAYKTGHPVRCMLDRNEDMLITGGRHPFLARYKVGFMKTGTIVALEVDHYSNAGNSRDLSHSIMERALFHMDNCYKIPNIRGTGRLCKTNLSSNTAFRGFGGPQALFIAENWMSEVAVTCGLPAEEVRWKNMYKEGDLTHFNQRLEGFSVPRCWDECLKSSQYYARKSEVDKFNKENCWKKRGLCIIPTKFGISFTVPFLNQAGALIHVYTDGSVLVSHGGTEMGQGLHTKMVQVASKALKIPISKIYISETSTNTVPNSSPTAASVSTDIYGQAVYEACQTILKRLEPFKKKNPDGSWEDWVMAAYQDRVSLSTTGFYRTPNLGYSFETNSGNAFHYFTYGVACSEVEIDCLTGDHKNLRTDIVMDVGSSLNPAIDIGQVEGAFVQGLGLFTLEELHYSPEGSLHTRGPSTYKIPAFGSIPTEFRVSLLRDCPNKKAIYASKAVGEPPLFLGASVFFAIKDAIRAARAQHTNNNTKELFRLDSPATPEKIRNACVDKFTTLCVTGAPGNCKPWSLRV
inhibition at 200 µg/mL [3] [%],SMILES,IC50 [1] [µM],CC50 at 48 h [2] [µM],inhibition at 50 µg/mL [1] [%],inhibition at 50 µg/mL [4] [%],IC50 [4] [µM]
–,"COc1cccc2c1C(=O)c1c(O)c3c(c(O)c1C2=O)C[C@@](O)(C(=O)CO)C[C@@H]3O[C@H]1C[C@H](N)[C@H](O)[C@H](C)O1 [Doxorubicin·HCl, Doxorubicin hydrochloride]",0.69 ± 0.03,2.75 ± 0.21,–,–,–
27 ± 7.9,"Nc1ncnc2c1ncn2[C@@H]1O[C@H](CO)[C@@H](O)[C@H]1O [compound 6, adenosine]",–,–,2.3 ± 2.9,2.5 ± 5,–
43.3 ± 5,"COc1cc2c(c(O)c1C/C=C(\C)CCC=C(C)C)C(=O)N(CCc1ccccc1)C2 [compound 13, hericerin]",5.9 ± 1.6,79.6 ± 13.7,–,–,57.5 ± 5.4
